The results in this text go back to US7037922B1, “Aryl fused 2,4-disubstituted pyridines: NK3 receptor ligands” (Neurogen Corporation, priority 2000, dated 2006).

For the assay, the target named is T1, NK-3 receptor (Homo sapiens, UniProt P29371).
T1 construct: expressed in transfected cells; total cellular membranes used
T1 sequence (P29371 1-465): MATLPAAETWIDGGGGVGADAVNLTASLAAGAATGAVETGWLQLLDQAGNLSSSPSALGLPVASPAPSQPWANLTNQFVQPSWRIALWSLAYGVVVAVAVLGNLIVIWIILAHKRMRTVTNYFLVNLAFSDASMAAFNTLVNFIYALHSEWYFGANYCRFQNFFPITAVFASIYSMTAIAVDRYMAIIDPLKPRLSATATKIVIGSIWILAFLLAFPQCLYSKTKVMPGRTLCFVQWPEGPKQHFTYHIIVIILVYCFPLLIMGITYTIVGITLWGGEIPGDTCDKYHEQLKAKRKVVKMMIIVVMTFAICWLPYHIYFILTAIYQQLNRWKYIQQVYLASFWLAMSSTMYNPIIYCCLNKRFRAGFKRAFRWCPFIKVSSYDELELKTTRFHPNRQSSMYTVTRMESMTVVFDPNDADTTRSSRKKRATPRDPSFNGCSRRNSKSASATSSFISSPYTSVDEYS
Description: NK3 receptor binding assay (displacement of 125I-methylPhe7-neurokinin B). Conditions: membranes of Chinese hamster ovary cells expressing cloned human NK-3 receptor; 0.15 nM 125I-methylPhe7-neurokinin B; 2 hours at 4° C. Here is the method: The following assay is a standard assay of NK3 receptor binding, which is used to determine the NK-3 receptor binding affinity of compounds.
Assays are performed as described in Krause et al (Proc. Natl. Acad. Sci. USA 94: 310–315, 1997). The NK-3 receptor complementary DNA was cloned from human hypothalamic RNA using standard procedures. The receptor cDNA was inserted into the expression vector pM^2 to transfect the mammalian Chinese hamster ovary cell line, and a stably expressing clonal cell line was isolated, characterized and used for the current experiments. Cells are grown in minimal essential medium alpha containing 10% fetal bovine serum and 0.8 mg G418 per ml. Cells were liberated from cell culture plates with No-zyme (PBS base, JRH Biosciences), and harvested by low speed centrifugation. The cell pellet was homogenized in TBS (0.05 m TrisHCl, 120 mM NaCl, pH 7.4) with a Polytron homogenizer at setting 5 for 20 seconds, and total cellular membranes were isolated by centrifugation at 47,500×g for 10 minutes. The membrane pellet was resuspended by homogenization with the Polytron as above, and the membranes were isolated by centrifugation at 47,500×g for 10 minutes. This final membrane pellet was resuspended in TBS at a protein concentration of 350 μg/ml.
Receptor binding assays contain a total volume of 200 μl containing 50 μg membrane protein, 0.15 nM ^125I-methylPhe^7-neurokinin B, drug or blocker in TBS containing 1.0 mg/ml bovine serum albumen, 0.2 mg/ml bacitracin, 20 ug/ml leupeptin and 20 μg/ml chymostatin. Incubations are carried out for 2 hours at 4° C., and the membrane proteins are harvested by passing the incubation mixture by rapid filtration over presoaked GF/B filters to separate bound from free ligand. […] After filtration of the incubation mixture, filters are rinsed 4 times with ice-cold TBS containing 0.01% sodium dodecyl sulfate and counted in a β-plate scintillation counter. […] Data are collected in duplicate determinations, averaged, and the percent inhibition of total specific binding is calculated. […]
By IC50 is commonly meant the point on the concentration scale where inhibition reaches its midpoint. Low readings indicate greater potency in that assay, high ones weaker potency in that assay. In turn, `CC[C@H](NC(=O)c1cc(-c2ccccc2)nc2ccncc12)c1ccccc1` [Compound 1] displayed an IC50 of 50 nM. In other words, the double-digit nanomolar range.

`CC[C@H](NC(=O)c1cc(-c2ccccc2)nc2ncccc12)c1ccccc1` [Compound 3] yielded an IC50 of 100 nM. This IC50 is about 2-fold higher than that of the compound before.

In turn, `CC[C@H](NC(=O)c1cc(-c2ccccc2)nc2ccsc12)c1ccccc1` [Compound 2] came in with an IC50 of 80 nM.
